Results published in the NIST ThermoML archive (doi:10.1021/je800930v).

Tests used:
[1] = 101 kPa, Liquid
[2] = xn = mol fraction of the nth substance listed; conditions: 101 kPa, Liquid

CCCCO [butan-1-ol]
[1]
Conditions	mass density [kg/m3]	viscosity [mPa·s]
298.15 K	805.8	2.588
308.15 K	798.08	1.991
318.15 K	790.22	1.555
328.15 K	782.17	1.228
338.15 K	773.88	0.981

CCCCO [butan-1-ol] + O=C(O)C1CC1
[2], x2 = 0
Conditions	mass density [kg/m3]	viscosity [mPa·s]
298.15 K	805.8	2.588
308.15 K	798.08	1.991
318.15 K	790.22	1.555
328.15 K	782.17	1.228
338.15 K	773.88	0.981

O=C(O)C1CC1 [cyclopropanecarboxylic acid]
[1]
Conditions	mass density [kg/m3]	viscosity [mPa·s]
298.15 K	1082.92	3.306
308.15 K	1072.97	2.603
318.15 K	1063.04	2.102
328.15 K	1053.12	1.739
338.15 K	1043.2	1.459

O=C(O)C1CC1 [cyclopropanecarboxylic acid] + CCCCO
[2]
Conditions	mass density, 298.15 K [kg/m3]	mass density, 308.15 K [kg/m3]	mass density, 318.15 K [kg/m3]	mass density, 328.15 K [kg/m3]	mass density, 338.15 K [kg/m3]	viscosity, 298.15 K [mPa·s]	viscosity, 308.15 K [mPa·s]	viscosity, 318.15 K [mPa·s]	viscosity, 328.15 K [mPa·s]	viscosity, 338.15 K [mPa·s]
x1 = 0.1	831.84	823.84	815.72	807.43	798.92	2.672	2.064	1.615	1.289	1.031
x1 = 0.2	858.24	850.01	841.64	833.15	824.46	2.782	2.145	1.689	1.339	1.081
x1 = 0.3	884.97	876.51	867.95	859.26	850.39	2.936	2.26	1.779	1.416	1.145
x1 = 0.4	912.03	903.36	894.6	885.74	876.73	3.091	2.374	1.863	1.488	1.207
x1 = 0.5	939.3	930.44	921.51	912.47	903.33	3.217	2.475	1.944	1.556	1.266
x1 = 0.6	966.97	957.92	948.81	939.61	930.34	3.319	2.558	2.016	1.62	1.324
x1 = 0.6987	994.72	985.5	976.22	966.86	957.46	3.386	2.616	2.079	1.671	1.37
x1 = 0.7996	1023.6	1014.15	1004.68	995.17	985.6	3.401	2.634	2.11	1.708	1.41
x1 = 0.9	1053	1043.31	1033.63	1023.94	1014.21	3.362	2.628	2.109	1.723	1.432
x1 = 1	1082.92	1072.97	1063.04	1053.12	1043.2	3.306	2.603	2.102	1.739	1.459

O=C(O)C1CC1 [cyclopropanecarboxylic acid] + CCCO
[2]
Conditions	mass density, 298.15 K [kg/m3]	mass density, 308.15 K [kg/m3]	mass density, 318.15 K [kg/m3]	mass density, 328.15 K [kg/m3]	mass density, 338.15 K [kg/m3]	viscosity, 298.15 K [mPa·s]	viscosity, 308.15 K [mPa·s]	viscosity, 318.15 K [mPa·s]	viscosity, 328.15 K [mPa·s]	viscosity, 338.15 K [mPa·s]
x1 = 0.1	832.12	823.73	815.19	806.46	797.48	2.118	1.667	1.325	1.068	0.87
x1 = 0.2	863.75	855.12	846.35	837.42	828.26	2.33	1.833	1.451	1.169	0.953
x1 = 0.3	894.25	885.41	876.46	867.36	858.07	2.568	2.002	1.583	1.276	1.041
x1 = 0.4138	927.62	918.58	909.45	900.17	890.75	2.82	2.19	1.733	1.396	1.141
x1 = 0.5001	952.13	942.95	933.7	924.34	914.85	2.988	2.317	1.834	1.481	1.211
x1 = 0.6	979.77	970.45	961.07	951.61	942.03	3.14	2.437	1.929	1.56	1.282
x1 = 0.7	1006.34	996.88	987.37	977.81	968.16	3.235	2.517	2.002	1.626	1.342
x1 = 0.8	1032.24	1022.8	–	1003.51	993.78	3.299	2.574	2.06	1.678	1.392
x1 = 0.9	1057.82	1048.15	1038.38	1028.6	1018.78	3.316	2.617	2.092	1.713	1.429
x1 = 1	1082.92	1072.97	1063.04	1053.12	1043.2	3.306	2.603	2.102	1.739	1.459

O=C(O)C1CC1 [cyclopropanecarboxylic acid] + CCO
[2]
Conditions	mass density, 298.15 K [kg/m3]	mass density, 308.15 K [kg/m3]	mass density, 318.15 K [kg/m3]	mass density, 328.15 K [kg/m3]	viscosity, 298.15 K [mPa·s]	viscosity, 308.15 K [mPa·s]	viscosity, 318.15 K [mPa·s]	viscosity, 328.15 K [mPa·s]
x1 = 0.0787	820.26	811.57	802.61	793.34	1.272	1.043	0.865	0.723
x1 = 0.161	853.87	844.96	835.92	826.69	1.469	1.201	0.99	0.825
x1 = 0.2475	886.51	877.38	868.1	858.68	1.711	1.388	1.136	0.947
x1 = 0.3384	917.74	908.48	899.1	889.59	1.985	1.596	1.299	1.073
x1 = 0.4341	947.8	938.44	928.98	919.39	2.279	1.814	1.47	1.208
x1 = 0.535	976.75	967.28	957.74	948.09	2.562	2.029	1.636	1.342
x1 = 0.6415	1004.67	995.1	985.47	975.77	2.818	2.225	1.789	1.467
x1 = 0.7542	1031.56	1021.89	1012.17	1002.41	3.035	2.391	1.895	1.557
x1 = 0.8734	1057.73	1047.94	1038.12	1028.3	3.204	2.532	2.024	1.674
x1 = 1	1082.92	1072.97	1063.04	1053.12	3.306	2.603	2.102	1.739

O=C(O)C1CC1 [cyclopropanecarboxylic acid] + CO
[2]
Conditions	mass density, 298.15 K [kg/m3]	mass density, 308.15 K [kg/m3]	mass density, 318.15 K [kg/m3]	mass density, 328.15 K [kg/m3]	viscosity, 298.15 K [mPa·s]	viscosity, 308.15 K [mPa·s]	viscosity, 318.15 K [mPa·s]	viscosity, 328.15 K [mPa·s]
x1 = 0.1	846.5	837.02	827.45	817.74	0.773	0.651	0.572	0.499
x1 = 0.2	895.02	885.53	875.84	866.23	1.052	0.886	0.753	0.645
x1 = 0.3	935.16	925.62	916	906.25	1.392	1.151	0.965	0.816
x1 = 0.3999	968.42	958.83	949.18	939.42	1.778	1.451	1.199	1
x1 = 0.4994	996.21	986.56	976.86	967.07	2.189	1.765	1.44	1.191
x1 = 0.5989	1019.49	1009.79	1000.06	990.24	2.557	2.029	1.641	1.349
x1 = 0.7001	1039.41	1029.65	1019.87	1010.04	2.887	2.227	1.825	1.494
x1 = 0.8001	1056.17	1046.35	1036.53	1026.65	3.139	2.449	1.963	1.604
x1 = 0.9	1070.57	1060.68	1050.81	1040.92	3.298	2.553	2.047	1.678
x1 = 1	1082.92	1072.97	1063.04	1053.12	3.306	2.603	2.102	1.739

CCO [ethanol]
[1]
Conditions	mass density [kg/m3]	viscosity [mPa·s]
298.15 K	785.44	1.097
308.15 K	776.78	0.908
318.15 K	767.94	0.756
328.15 K	758.92	0.634

CCO [ethanol] + O=C(O)C1CC1
[2], x2 = 0
Conditions	mass density [kg/m3]	viscosity [mPa·s]
298.15 K	785.44	1.097
308.15 K	776.78	0.908
318.15 K	767.94	0.756
328.15 K	758.92	0.634

CO [methanol]
[1]
Conditions	mass density [kg/m3]	viscosity [mPa·s]
298.15 K	787.01	0.556
308.15 K	777.54	0.484
318.15 K	767.98	0.424
328.15 K	758.28	0.372

CO [methanol] + O=C(O)C1CC1
[2], x2 = 0
Conditions	mass density [kg/m3]	viscosity [mPa·s]
298.15 K	787.01	0.556
308.15 K	777.54	0.484
318.15 K	767.98	0.424
328.15 K	758.28	0.372

CCCO [propan-1-ol]
[1]
Conditions	mass density [kg/m3]	viscosity [mPa·s]
298.15 K	799.6	1.955
308.15 K	791.49	1.538
318.15 K	783.22	1.224
328.15 K	774.73	0.986
338.15 K	765.98	0.801

CCCO [propan-1-ol] + O=C(O)C1CC1
[2], x2 = 0
Conditions	mass density [kg/m3]	viscosity [mPa·s]
298.15 K	799.6	1.955
308.15 K	791.49	1.538
318.15 K	783.22	1.224
328.15 K	774.73	0.986
338.15 K	765.98	0.801
